The values below come from patent publication US20240246913A1, “2-CARBOXYL-INDOLE INHIBITORS OF METALLO-BETA-LACTAMASES” (Oxford University Innovation Limited, priority 2021, published 2024).

What all share (assay type): biochemical
The target in one experiment is VIM-1 (Pseudomonas aeruginosa, UniProt A0A0F7KYQ8). Description: MBL inhibition, FC-5 fluorescence assay, VIM-1. As to the method:
(§1) Inhibitors were tested using a panel of the clinically relevant B1 MBLs (NDM-1, VIM-1, -2 and IMP-1). Activities were assayed by monitoring the release of a fluorophore following the enzymatic breakdown of the cephalosporin FC-5 (https://pubs.acs.org/doi/abs/10.1021/jm400769b). FC-5 assays were conducted in clear bottomed 384 black well microplates (Greiner); the initial rate of reaction was assessed by monitoring the fluorescence intensity (λex=380 nm and λem=460 nm) using a Pherstar FS (BMG LabTech) plate reader. Initial rates of reaction were determined and dose-response analyses conducted in GraphPad Prism. Dose-response curves were fitted using the log(inhibitor) vs normalized response—variable slope model of GraphPad Prism 12. Each concentration point for routine screening was conducted with 4 intra-plate replicates.

The target in another experiment is IMP-1 (Serratia marcescens, UniProt P52699). The experiment is described as follows: MBL inhibition, FC-5 fluorescence assay, IMP-1. As to the method:
as §1

A further experiment has as its target NDM-1 (Klebsiella pneumoniae, UniProt C7C422). The experiment is described as follows: MBL inhibition, FC-5 fluorescence assay, NDM-1. The procedure:
as §1

For a further experiment, the target named is VIM-2 (Escherichia coli, UniProt Q5U7L7). Description: MBL inhibition, FC-5 fluorescence assay, VIM-2. As to the method:
as §1

Setting [1] is: FC-5 cephalosporin substrate, ranges of obtained pIC50, read-out: pIC50 VIM-1 (converted).
The mark [2] stands for this setting: FC-5 cephalosporin substrate, fluorescence, ranges of obtained pIC50, read-out: pIC50 IMP-1 (converted).
Where [3] appears, read: FC-5 cephalosporin substrate, fluorescence, ranges of obtained pIC50, read-out: pIC50 NDM-1 (converted).
[4] abbreviates: FC-5 cephalosporin substrate, ranges of obtained pIC50, read-out: pIC50 VIM-2 (converted).

Like-named read-outs stand apart in the source and are kept apart here.

Sequence of NDM-1 (C7C422 29-270, looked up, species assumed): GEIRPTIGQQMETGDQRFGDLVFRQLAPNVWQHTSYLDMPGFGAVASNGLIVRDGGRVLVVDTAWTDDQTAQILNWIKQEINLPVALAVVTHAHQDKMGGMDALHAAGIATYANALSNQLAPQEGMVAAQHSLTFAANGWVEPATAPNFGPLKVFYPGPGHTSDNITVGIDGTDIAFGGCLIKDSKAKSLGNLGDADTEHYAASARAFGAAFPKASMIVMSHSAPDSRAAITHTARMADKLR
Sequence of IMP-1 (P52699 19-246, looked up, species assumed): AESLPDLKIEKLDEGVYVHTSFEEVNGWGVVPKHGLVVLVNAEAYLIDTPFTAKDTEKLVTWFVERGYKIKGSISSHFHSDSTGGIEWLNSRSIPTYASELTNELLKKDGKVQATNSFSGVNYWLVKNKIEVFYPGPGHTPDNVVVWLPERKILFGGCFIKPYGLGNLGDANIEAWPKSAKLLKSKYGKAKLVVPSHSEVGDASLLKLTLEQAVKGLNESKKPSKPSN

On to `CC(NC(=O)C[C@H]1CC[C@H](N)CC1)c1cccc2c(-c3ccc(CS(C)(=O)=O)c(F)c3)c(C(=O)O)[nH]c12` (mixture of isomers) [IC-100, 7-[1-[[2-(4-Aminocyclohexyl)acetyl]amino]ethyl]-3-[3-fluoro-4-(methylsulfonylmethyl)phenyl]-1H-indole-2-carboxylic acid], for which the IC50 is greater than 10 nM at VIM-1 (setting [1]), greater than 10 nM at IMP-1 (setting [2]), greater than 10 nM on NDM-1 (setting [3]) and 0.1 to 1 nM at VIM-2 (setting [4]).
In the case of `CC(CC(=O)NCCc1c[nH]cn1)c1cccc2c(-c3ccc(CS(C)(=O)=O)c(F)c3)c(C(=O)O)[nH]c12` (racemic) [IC-104, 3-[3-Fluoro-4-(methanesulfonylmethyl)phenyl]-7-(1-{[2-(1H-imidazol-4-yl)ethyl]carbamoy}propan-2-yl)-1H-indole-2-carboxylic acid], the IC50 on VIM-1 (setting [1]) was greater than 10 nM; at IMP-1 (setting [2]), greater than 10 nM; at NDM-1 (setting [3]) it was 1 to 10 nM; at VIM-2 (setting [4]), greater than 10 nM.
As to `CC(c1cccc2c(-c3ccc(CS(C)(=O)=O)c(F)c3)c(C(=O)O)[nH]c12)N1CC(CCCN)OC1=O` (single isomer, unassigned) [IC-83, 7-(1-(5-(3-Aminopropyl)-2-oxooxazolidin-3-yl)ethyl)-3-(3-fluoro-4-((methylsulfonyl)methyl)phenyl)-1H-indole-2-carboxylic acid], the IC50 on VIM-1 (setting [1]) and at VIM-2 (setting [4]) was 1 to 10 nM each time.
Turning to `CC(c1cccc2c(-c3ccc(CS(C)(=O)=O)c(F)c3)c(C(=O)O)[nH]c12)N1CC(CCCN)OC1=O` (single isomer, unassigned) [IC-84, 7-(1-(5-(3-Aminopropyl)-2-oxooxazolidin-3-yl)ethyl)-3-(3-fluoro-4-((methylsulfonyl)methyl)phenyl)-1H-indole-2-carboxylic acid], the IC50 on VIM-1 (setting [1]) is 0.1 to 1 nM; on IMP-1 (setting [2]) it was greater than 10 nM; on NDM-1 (setting [3]) it was 0.1 to 1 nM; at VIM-2 (setting [4]) it was 0.1 to 1 nM.
`CC(NS(=O)(=O)c1ccccc1)c1cccc2c(-c3cc(Cl)cc(Cl)c3)c(C(=O)O)[nH]c12` (stereo not drawn) [IC-1, 3-(3,5-Dichlorophenyl)-7-(1-(phenylsulfonamido)ethyl)-1H-indole-2-carboxylic acid]: the IC50 at VIM-1 (setting [1]), at IMP-1 (setting [2]), on NDM-1 (setting [3]) and on VIM-2 (setting [4]) was greater than 10 nM each time.
In the case of `CC(c1cnn(C)c1)c1cccc2c(-c3ccc(CS(C)(=O)=O)c(F)c3)c(C(=O)O)[nH]c12` (stereo not drawn) [IC-3, 3-(3-Fluoro-4-((methylsulfonyl)methyl)phenyl)-7-(1-(1-methyl-1H-pyrazol-4-yl)ethyl)-1H-indole-2-carboxylic acid], the IC50 on VIM-1 (setting [1]) was greater than 10 nM; at IMP-1 (setting [2]), greater than 10 nM; at NDM-1 (setting [3]) it was 1 to 10 nM; on VIM-2 (setting [4]), 1 to 10 nM.
Regarding `CC(c1cccs1)c1cccc2c(-c3ccc(CS(C)(=O)=O)c(F)c3)c(C(=O)O)[nH]c12` (stereo not drawn) [IC-4, 3-(3-Fluoro-4-((methylsulfonyl)methyl)phenyl)-7-(1-(thiophen-2-yl)ethyl)-1H-indole-2-carboxylic acid], the IC50 on VIM-1 (setting [1]), at IMP-1 (setting [2]), on NDM-1 (setting [3]) and on VIM-2 (setting [4]) was 1 to 10 nM in each case.
On to `CC(c1cnn(CCCN)c1)c1cccc2c(-c3ccc(CS(C)(=O)=O)c(F)c3)c(C(=O)O)[nH]c12` (stereo not drawn) [IC-5, 7-(1-(1-(3-Aminopropyl)-1H-pyrazol-4-yl)ethyl)-3-(3-fluoro-4-((methylsulfonyl)methyl)phenyl)-1H-indole-2-carboxylic acid], for which the IC50 was 1 to 10 nM at VIM-1 (setting [1]), greater than 10 nM on IMP-1 (setting [2]), 0.1 to 1 nM at NDM-1 (setting [3]) and less than 0.1 nM at VIM-2 (setting [4]).
Take `CC(c1cnc(Cl)s1)c1cccc2c(-c3ccc(CS(C)(=O)=O)c(F)c3)c(C(=O)O)[nH]c12` (stereo not drawn) [IC-7, 7-(1-(2-Chlorothiazol-5-yl)ethyl)-3-(3-fluoro-4-((methylsulfonyl)methyl)phenyl)-1H-indole-2-carboxylic acid]: the IC50 was 1 to 10 nM at VIM-1 (setting [1]), 1 to 10 nM on IMP-1 (setting [2]), 0.1 to 1 nM on NDM-1 (setting [3]) and 1 to 10 nM on VIM-2 (setting [4]).
For `CC(c1nn[nH]n1)c1cccc2c(-c3ccc(CS(C)(=O)=O)c(F)c3)c(C(=O)O)[nH]c12` (stereo not drawn) [IC-9, 7-(1-(2H-Tetrazol-5-yl)ethyl)-3-(3-fluoro-4-((methylsulfonyl)methyl)phenyl)-1H-indole-2-carboxylic acid], the IC50 at VIM-1 (setting [1]), at IMP-1 (setting [2]), at NDM-1 (setting [3]) and on VIM-2 (setting [4]) was greater than 10 nM each time.
Regarding `CC(c1cccc2c(-c3ccc(CS(C)(=O)=O)c(Cl)c3)c(C(=O)O)[nH]c12)n1cc(CCCN)nn1` (stereo not drawn) [IC-10, 7-[1-[4-(3-Aminopropyl)triazol-1-yl]ethyl]-3-[3-chloro-4-(methylsulfonylmethyl)phenyl]-1H-indole-2-carboxylic acid], the IC50 on VIM-1 (setting [1]) is greater than 10 nM; at IMP-1 (setting [2]) it was greater than 10 nM; at NDM-1 (setting [3]) it was 0.1 to 1 nM; at VIM-2 (setting [4]), less than 0.1 nM.
As for `CC(c1cccc2c(-c3ccc(CS(C)(=O)=O)c(F)c3)c(C(=O)O)[nH]c12)N1CCNCC1` (stereo not drawn) [IC-12, 3-(3-Fluoro-4-((methylsulfonyl)methyl)phenyl)-7-(1-(piperazin-1-yl)ethyl)-1H-indole-2-carboxylic acid], the IC50 against VIM-1 (pIC50 VIM-1, FC-5 cephalosporin substrate, ranges of obtained pIC50) was greater than 10 nM; at IMP-1, greater than 10 nM; at NDM-1, greater than 10 nM; on VIM-2 (pIC50 VIM-2, FC-5 cephalosporin substrate, ranges of obtained pIC50), 1 to 10 nM.
On to `C[C@@H](c1cccc2cc(C(=O)O)[nH]c12)N1C[C@]2(C[C@@H](CN)C2)OC1=O` [IC-30], for which the IC50 on VIM-1 (setting [1]), at IMP-1 (setting [2]), on NDM-1 (setting [3]) and at VIM-2 (setting [4]) was greater than 10 nM in each case.
On to `C[C@@H](c1cccc2c(-c3cc(O)nc(O)c3)c(C(=O)O)[nH]c12)N1C[C@]2(C[C@@H](CN)C2)OC1=O` [IC-31, 3-(2,6-dihydroxypyridin-4-yl)-7-[(1S)-1-[(2r,4r)-2-(aminomethyl)-6-oxo-5-oxa-7-azaspiro[3.4]octan-7-yl]ethyl]-1H-indole-2-carboxylic acid], for which the IC50 on VIM-1 (setting [1]) is greater than 10 nM; at IMP-1 (setting [2]) it was greater than 10 nM; at NDM-1 (setting [3]), 1 to 10 nM; on VIM-2 (setting [4]) it was 1 to 10 nM.
With `C[C@@H](c1cccc2c(N3CCS(=O)(=O)CC3)c(C(=O)O)[nH]c12)N1C[C@]2(C[C@@H](CN)C2)OC1=O` [IC-40, 7-((S)-1-((2S,4r)-2-(aminomethyl)-6-oxo-5-oxa-7-azaspiro[3.4]octan-7-yl)ethyl)-3-(1,1-dioxidothiomorpholino)-1H-indole-2-carboxylic acid], the IC50 is greater than 10 nM on VIM-1 (setting [1]), 1 to 10 nM on IMP-1 (setting [2]), greater than 10 nM at NDM-1 (setting [3]) and greater than 10 nM on VIM-2 (setting [4]).
As to `C[C@@H](c1cccc2c(-c3ccc4c(c3)CC(=O)N4)c(C(=O)O)[nH]c12)N1C[C@]2(C[C@@H](CN)C2)OC1=O` [IC-41, 7-((S)-1-((2S,4r)-2-(aminomethyl)-6-oxo-5-oxa-7-azaspiro[3.4]octan-7-yl)ethyl)-3-(2-oxoindolin-5-yl)-1H-indole-2-carboxylic acid], the IC50 at VIM-1 (setting [1]) was 1 to 10 nM; on IMP-1 (setting [2]), greater than 10 nM; at NDM-1 (setting [3]), 0.1 to 1 nM; at VIM-2 (setting [4]), 1 to 10 nM.
For `C[C@@H](c1cccc2c(-c3cnc(N)nc3)c(C(=O)O)[nH]c12)N1C[C@]2(C[C@@H](CN)C2)OC1=O` [IC-42, 7-((S)-1-((2S,4r)-2-(aminomethyl)-6-oxo-5-oxa-7-azaspiro[3.4]octan-7-yl)ethyl)-3-(2-aminopyrimidin-5-yl)-1H-indole-2-carboxylic acid], the IC50 on VIM-1 (setting [1]) is 1 to 10 nM; at IMP-1 (setting [2]) it was greater than 10 nM; at NDM-1 (setting [3]), 0.1 to 1 nM; at VIM-2 (setting [4]), 0.1 to 1 nM.
For `C[C@@H](c1cccc2c(-c3cn[nH]c3)c(C(=O)O)[nH]c12)N1C[C@]2(C[C@@H](CN)C2)OC1=O` [IC-43, 7-((S)-1-((2S,4r)-2-(aminomethyl)-6-oxo-5-oxa-7-azaspiro[3.4]octan-7-yl)ethyl)-3-(1H-pyrazol-4-yl)-1H-indole-2-carboxylic acid], the IC50 at VIM-1 (setting [1]) is greater than 10 nM; on IMP-1 (setting [2]), greater than 10 nM; on NDM-1 (setting [3]) it was 0.1 to 1 nM; at VIM-2 (setting [4]), 1 to 10 nM.
In the case of `CC(c1noc(C2CNC(=O)C2)n1)c1cccc2c(-c3ccc(CS(C)(=O)=O)c(F)c3)c(C(=O)O)[nH]c12` (stereo not drawn) [IC-63, 3-[3-Fluoro-4-(methylsulfonylmethyl)phenyl]-7-[1-[5-(5-oxopyrrolidin-3-yl)-1,2,4-oxadiazol-3-yl]ethyl]-1H-indole-2-carboxylic acid], the IC50 on VIM-1 (setting [1]) is greater than 10 nM; at IMP-1 (setting [2]), greater than 10 nM; on NDM-1 (setting [3]), 1 to 10 nM; at VIM-2 (setting [4]) it was less than 0.1 nM.
On to `CC(c1cccc2c(-c3ccc(CS(C)(=O)=O)c(F)c3)c(C(=O)O)[nH]c12)n1cc(CCCN)[nH]c1=O` (stereo not drawn) [IC-64, 7-[1-[5-(3-Aminopropyl)-2-oxo-1H-imidazol-3-yl]ethyl]-3-[3-fluoro-4-(methylsulfonylmethyl)phenyl]-1H-indole-2-carboxylic acid], for which the IC50 on VIM-1 (setting [1]) is greater than 10 nM; at IMP-1 (setting [2]), greater than 10 nM; at NDM-1 (setting [3]), 1 to 10 nM; at VIM-2 (setting [4]), 1 to 10 nM.
